Entries after “also recorded” stand apart in the source; their conditions may differ. Like-named read-outs stand apart in the source and are kept apart here.
How the values were obtained:
[1] = system: rodent SOD1^G93A astrocyte-induced toxicity; assay: ALS astrocyte-induced MN toxicity, rodent model of ALS; assay type: cell-based
[2] = target: Cx43 HC (Homo sapiens, UniProt P17302); settings: cited from earlier work
[3] = system: control hiPSC-A/-MN co-cultures; assay: Multielectrode array (MEA) recording of control hiPSC-A/-MN co-cultures; assay type: cell-based, human; settings: for hiPSC-Neuron spike activity: co-cultured 1 week
Description: (§1) Multi-electrode array culture and recordings: Multi-electrode array (MEA) plates (MultiChannel Systems, 60MEA200/30iR-Ti-gr,) with 60 electrodes, including 59 active and 1 reference, and a MEA2100 (MultiChannel Systems) platform were used for the recording of neuronal activity in hiPSC-A/-MN co-cultures as we have previously described^50. Briefly, hiPSC-A from healthy subjects and ALS patients and hiPSC-MN from a single control line were serially co-cultured at densities of 100,000 cells/plate and 500,000 cells/plate, respectively. We analyzed the following electrophysiological parameters: spike rate, burst rate, and percentage of spiking and bursting electrodes (on the overall 59 recording electrodes). The recording of the baseline activity of MEA plates was performed every 3 days over 1-minute period for 2 weeks after initial plating. For pharmacological assays, we performed 5 minutes recordings to capture slower electrophysiological effects of HC blockers 36: baseline MEA activity for 1 minute, activity for 1 minute after 100 μl medium exchange with drug vehicle, and activity for 3 minutes after the exchange of 100 μl of medium containing the compound of interest and the drug vehicle. For analysis purposes, we considered only the electrodes with spike rate >0. Spiking and bursting activity is expressed as the mean of individual MEA plates.

[4] = system: gap junction channels; settings: cited from earlier work
[5] = in vivo, cited from earlier work
[6] = system: hiPSC-MN alone; assay: MEA recording of hiPSC-MN alone in culture; assay type: cell-based, human; settings: 10 μM
[7] = in vivo; cited from earlier work
[8] = system: FALS and SALS hiPSC-A/MN co-culture; assay: hiPSC-astrocyte / hiPSC-motor neuron direct co-culture, neuron survival by immunostaining; assay type: cell-based, human; settings: for neuroprotection of control hiPSC-MN in co-culture with ALS hiPSC-A: 3 days
Method: (§2) Human iPSC-astrocyte and hiPSC-motor neuron co-culture: Human iPSC-A form healthy subjects and ALS patients were cultured for 86 DIV and then plated in 24 well plates on glass cover-slips at a density of 20,000 cells/well. Four days later, hiPSC-MN from control samples, cultured for 60 DIV prior to use, were plated on the top of astrocytes at a density of 50,000 cells/well. This was considered day 1 of co-culture. Co-cultures were maintained in motor neuronal medium enriched with 1% FBS for a total of 14 days before fixing for immunocytochemistry. Co-culture medium was changed every third day with half medium exchange. For pharmacological assays on Cx43 HC, we used GAP19 (Tocris, 53533) at a concentration of 340 μM^21,50 and tonabersat (SB-220453) at concentrations of 1 μM, 10 μM and 100 μM^7,8 (Millipore Sigma, SML1354).

[9] = target: T1, connexin 43 (Cx43) gap junctions (Homo sapiens, UniProt P17302); settings: cited from earlier work
T1 construct: host or cells: astrocyte cancer cell co-cultures

[10] = system: control hiPSC-MN; assay: Survival of control hiPSC-MN alone or co-cultured with control hiPSC-A; assay type: cell-based, human; settings: several concentrations; hiPSC-MN alone or in co-culture with control hiPSC-A
Method: Human iPSC-motor neuron culture: Briefly, NPC differentiated with the aforementioned spinal cord patterning protocol were cultured for up to 60 DIV with “neuronal differentiating medium”^58,59. To prevent astrocyte overproliferation, neuronal cultures were treated once with 0.02 μM cytosine arabinoside (Ara-C) (Millipore Sigma) for 48 h. While the majority of these cells are Tuj1+/ChAT+, consistent with a spinal motor neuronal phenotype, a smaller subset of neurons (Tuj1+/ChAT−) is also present and consists mainly of GABAergic interneurons^58.
as §2

[11] = system: transwell co-culture of FALS and SALS hiPSC-A with hiPSC-MN; assay: hiPSC-astrocyte / hiPSC-motor neuron transwell co-culture, neuron survival by immunostaining; assay type: cell-based, human
Method: Human iPSC-astrocyte and hiPSC-motor neuron co-culture in a transwell system: Human iPSC-MN from control samples were cultured for 56 DIV and then plated in 12 well plates on glass coverslips at a density of 250,000 cells/well. […] Four days later, the inserts with 90 DIV astrocytes were placed on the top of 12-well plates with 60 DIV motor neurons at the bottom. This was considered day 1 of “transwell” co-cultures. Half medium exchanges were performed from both the top and the bottom compartments. Transwell co-culture were otherwise maintained as conventional co-cultures and neurons on glass coverslips were fixed for immunocytochemistry after 14 days.

[12] = in vivo studies; cited from earlier work
[13] = system: ALS hiPSC-A / control hiPSC-MN co-cultures; assay: MEA recording of ALS hiPSC-A co-cultured with control hiPSC-MN; assay type: cell-based, human; settings: for ALS astrocyte-mediated hyperexcitability (neuronal spiking and bursting activity): 10 μM, within 5 minutes
Description: as §1

[14] = cited from earlier work; for tolerability / safety: humans, phase II clinical trials
[15] = system: brain metastases; settings: xenograft and immunocompetent models; cited from earlier work

T1 sequence (P17302 2-382 limits assumed, species assumed): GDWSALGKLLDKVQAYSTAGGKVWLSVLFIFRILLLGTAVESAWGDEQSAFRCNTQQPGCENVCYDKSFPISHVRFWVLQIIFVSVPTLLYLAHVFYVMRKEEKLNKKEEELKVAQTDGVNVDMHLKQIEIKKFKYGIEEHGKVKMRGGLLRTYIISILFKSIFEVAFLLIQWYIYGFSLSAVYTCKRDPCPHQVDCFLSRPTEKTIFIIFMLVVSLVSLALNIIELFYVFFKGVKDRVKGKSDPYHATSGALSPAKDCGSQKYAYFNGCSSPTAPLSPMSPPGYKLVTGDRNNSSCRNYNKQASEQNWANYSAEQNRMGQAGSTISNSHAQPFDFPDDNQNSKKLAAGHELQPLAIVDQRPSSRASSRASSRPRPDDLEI
Sequence of Cx43 HC (P17302 2-382 limits assumed): as the sequence (P17302 2-382 limits assumed, species assumed) above

In the case of “KQIEIKKFK [Gap19, nonapeptide derived from the cytoplasmic loop of Cx43]”, the “neuroprotection against ALS astrocyte-induced MN toxicity” value [1] is given as “can be neuroprotective”, the “inhibition of astroglial Cx43 hemichannels” value [2] is given as “inhibits astroglial Cx43 hemichannels in a dose-dependent manner” and the neuronal firing ([3]; hiPSC-Astro/Neuron co-culture, 1 minute after application) is given as “reduced neuronal firing”. For the same molecule, the “effect on gap junction channels” value [4] was “without affecting gap junction channels”.

For `CC(=O)c1ccc2c(c1)[C@H](NC(=O)c1ccc(F)c(Cl)c1)[C@H](O)C(C)(C)O2` [tonabersat, N-[(3S,4S)-6-acetyl-3-hydroxy-2,2-dimethyl-3,4-dihydro-2H-1-benzopyran-4-yl]-3-chloro-4-fluorobenzamide], the cortical spreading depression [5] is given as “inhibitory effects on cortical spreading depression”, the cortical spreading depression ([5]; listed as Tonabersat) is given as “antagonize cortical spreading depression” and the neuronal electrophysiological activity [6] is given as “did not observe any change in neuronal electrophysiological activity; also recorded: does not result in an alteration of electrophysiological activity”. The “neurogenic extravasation of plasma protein in the meninges” value [7] was “reduce neurogenic extravasation of plasma protein in the meninges”, the “rescue of ChAT MNs” value ([8]; 1 μM, direct co-culture, 14 days) was “rescues ChAT MNs” and the “neuroprotection of control hiPSC-MN in co-culture with ALS hiPSC-A” value ([8]; 10 μM, early (day 5 to day 8 of co-culture)) was “neuroprotection of control hiPSC-MN; also recorded: Significant neuroprotection”. The “neuroprotection of control hiPSC-MN in co-culture with ALS hiPSC-A” value ([8]; 10 μM, late (day 11 to day 14 of co-culture)) was “This protection did not occur; also recorded: Significant neuroprotection was appreciated after early but not late exposure”, the “rescue of ChAT MNs” value ([8]; 10 μM, direct co-culture, 14 days) was “rescues ChAT MNs” and the “neuroprotection of hiPSC-MN” value ([8]; 100 μM, direct co-culture, 14 days) was “not neuroprotective”. The “protection of non-MN populations (ChAT− and Isl1− neurons)” value ([8]; direct co-culture with FALS and SALS hiPSC-A) was “protective to non-MN populations; also recorded: can be rescued with tonabersat”, the “neuroprotection of hiPSC-MN (ChAT, Isl-1) from ALS astrocyte-mediated death” value ([8]; direct co-culture, 1 μM, 10 μM and 100 μM, 14 day incubation) was “can protect MNs from ALS astrocyte-induced excitotoxicity; also recorded: protects hiPSC-MN from ALS astrocyte-mediated death in a dose-dependent manner; also recorded: dose-dependent neuroprotection” and the “release of IFNα and TNF” value ([9]; astrocyte cancer cell co-cultures) was “inhibited”. For the same molecule, the “dye transfer from astrocytes to cancer cells” value [9] was “inhibited dye transfer from astrocytes to cancer cells”, the “hiPSC-MN survival (ChAT+ and Isl1+)” value [10] was “did not have any effect on hiPSC-MN survival; also recorded: no effect on ChAT+ and Isl1+ control hiPSC-MN survival” and the “concentrations that specifically block Cx43 HC” value ([2]; low concentrations) was 1 to 10 µM. The “neuroprotection of hiPSC-MN (ChAT+, Isl1+)” value ([11]; transwell co-culture, 14 days) was “neuroprotective effect of tonabersat was also seen; also recorded: confirms dose-dependent neuroprotection”, the “rescue of non-motor neuron cell death” value ([11]; transwell culture with FALS and SALS hiPSC-A) was “can be rescued with tonabersat” and the seizures [12] was “inhibitory effects”. The “levels of spiking and bursting activity after treatment versus untreated control co-cultures” value ([13]; 10 μM acute treatment, day 6 of co-culture) was “not significantly different”, the “ALS astrocyte-mediated hyperexcitability (neuronal spiking and bursting activity)” value ([13]; day 6 of co-culture) was “significantly reduced” and the “ALS astrocyte-mediated hyperexcitability (neuronal spiking and bursting activity)” value ([13]; day 6 of co-culture, listed as Tonabersat) was “significant inhibition”. The “concentration necessary to reduce ALS hiPSC-astrocyte mediated neuron spike activity” value ([13]; MEA, co-cultured 1 week, 1 minute after application) was 100 µM, the “neuronal spiking and bursting activity” value ([3]; 1 μM, 5 minutes after application, compared with 10 μM) was “less effective” and the hiPSC-Neuron spike activity ([3]; 10 μM, 1 minute after application) was “reduction of hiPSC-Neuron spike activity”. For the same molecule, the “neuronal spiking and bursting activity” value ([3]; 10 μM, within 5 minutes of application) was “significantly reduced neuronal spiking and bursting activity”, the hiPSC-Neuron spike activity ([3]; 100 μM, 1 minute after application) was “reduction of hiPSC-Neuron spike activity” and the “hiPSC-Neuron spike rate, burst rate, number of electrodes firing and bursting” value ([3]; hiPSC-Astro/Neuron co-culture) was “reduced hiPSC-Neuron spike rate, burst rate, number of electrodes firing and bursting”. For the same molecule, the hiPSC-Neuron firing ([3]; hiPSC-Astro/Neuron co-culture, 1 and 5 minutes after application) was “reduced hiPSC-Neuron firing”, the tolerability / safety [14] was “well tolerated and safe” and the tolerability / safety ([14]; listed as Tonabersat) was “excellent safety profile”. For the same molecule, the “effect on attacks of migraine aura” value ([14]; study by Hauge and colleagues) was “preventive effect”, the “efficacy on non-aura attacks” value ([14]; study by Hauge and colleagues) was “no efficacy” and the brain metastases [15] was “inhibited brain metastases”.

From patent US12226393B2, “Neuroprotective compounds for amyotrophic lateral sclerosis” (THE JOHNS HOPKINS UNIVERSITY, priority 2019, dated 2025)
